This is an account of results in patent US11352368B2, “Salt of fused ring pyrimidine compound, crystal form thereof and preparation method therefor and use thereof” (GUANGZHOU MAXINOVEL PHARMACEUTICALS CO., LTD., priority 2018, dated 2022).

Values after ≈ are worked out from the molar mass of the structure shown. Structures can show the parent of a compound that is named as a salt. Where two headings read alike, the source gives them in different places.

A short description of series [1]: Solubility test of the salts in pure water (Example 6). The format is physicochemical. To be noted: for saturated solubility: room temperature, balancing about 20 hours, HPLC; for solubility in pure water compared with the free base: versus free base of the fused ring pyrimidine compound. Here is the method:
2.0 mg of sample was precisely weighed into a liquid phase vial, 1.0 mL of purified water was added, the vial was subjected to ultrasonic treatment for about 30 seconds to disperse the samples evenly, then the vial was placed on a Labquaker rotator, and slowly rotated at room temperature for balancing. After balancing for about 20 hours, each vial was removed, and the solution was filtered with 0.45 μm nylon filter membrane. The filtrate was diluted by DMSO or not diluted and then detected by HPLC. At the same time, two parts of fused ring pyrimidine compounds were weighed and dissolved in DMSO to make standard solutions with concentration of 250 μg/mL and 500 μg/mL, respectively. The standard solutions were subjected to the HPLC detection. The sample concentration vs the peak area of HPLC principal component was used for make a standard curve, and the solubility of each sample in pure water was calculated by a external standard method.

Series [2] can be described thus: Dynamic vapor sorption analysis (DVS). It counts as physicochemical. To be noted: for XRPD of samples after DVS test: XRPD diffraction peaks before and after DVS test; for DVS weight gain from 0% RH to 95% RH: 25° C., 0% to 95% relative humidity, weight percentage. The protocol:
(§1) 10 mg of the crystal form A of the fumarate of fused ring pyrimidine compound as shown in formula 2 was weighed, and dried for 60 min under the condition of a temperature of 25° C. and a humidity of 0% RH, and then the humidity absorption characteristic of the sample was tested when the humidity changed from 0% RH to 95% RH, and the dehumidification characteristic of the sample was tested when the humidity changed from 95% RH to 0% RH. Each step length for the humidity changes was 5% RH, the balance standard was that the weight change rate was less than 0.01%/min within 5 min, and the longest balance time was 2 hours.
as §1, with “form B” for “form A”, “the adipate” for “the fumarate”, “formula 3” for “formula 2”

Series [3] in a line: Solubility test of crystal form A and crystal form B in a medium (Example 12). To be noted: for Solubility (calculated by free base of the fused ring pyrimidine compound): in mg/mL (unit assumed); for solubility in pure water compared to free base: versus free base of the fused ring pyrimidine compound; for solubility: thermodynamic from solid, read-out: Solubility (calculated by free base of the fused ring pyrimidine compound). The format is physicochemical. From the text:
Example 12 Solubility Test of the Crystal Form A of the Fumarate of Fused Ring Pyrimidine Compound as Shown in Formula 2 and the Crystal Form B of the Adipate of Fused Ring Pyrimidine Compound as Shown in Formula 3 in a Medium

Series [4] is described as follows: Stability test (total impurities, 20 days). The format is physicochemical. To be noted: for chemical stability in the condition of high temperature and high humidity / stability under light conditions versus the compound of formula 1: 20 days. Here is the method: The crystal form A of the fumarate of fused ring pyrimidine compound as shown in formula 2, the crystal form B of the adipate of fused ring pyrimidine compound as shown in formula 3 and the fused ring pyrimidine compound as shown in formula 1 were subjected to tests at a high temperature of 60° C., 25° C./60% RH, 40° C./75% RH and highlight irradiation (4500 lx±500 lx), the test time was 20 days, the sample bottles were placed under different test conditions, and samples were taken at 0 and 20 days to detect the total amount of impurities, and the test results were shown in Table 8 below.

Series [5] is described as follows: Pharmacokinetic experiment, single intragastric dose in rats. The format is in vivo, SD rats. To be noted: single dose 10 mg/kg, 0.5% MC and 0.5% Tween80 in water. Here is the method:
1) Preparation of animals 9 healthy male SD rats, each with a body weight of 220-230 g, were taken, fed with standard formulated granulated feed for rats at fixed times every day, and fasted for 12 hours before the experiment, and feeding was resumed after 4 hours of administration. Rats were free to drink water before, after and during the experiment. 9 rats were randomly divided into 3 groups.
2) Formulation of drugs: The fused ring pyrimidine compound as shown in formula 1, the crystal form A of the fumarate of fused ring pyrimidine compound as shown in formula 2 and the crystal form B of the adipate of fused ring pyrimidine compound as shown in formula 3 were accurately weighed, and were formulated into a 1 mg/mL solution in water (Wahaha/111830) with 0.5% MC (Fluka/BCBK3534K) and 0.5% Tween80 (TCl/V4FSC), respectively.
3) Intragastric administration with single dose (10 mg/kg): in the first group, rats were intragastrically administered with a solution of the fused ring pyrimidine compound as shown in formula 1, in the second group, rats were intragastrically administered with a solution of the crystal form A of the fumarate of fused ring pyrimidine compound as shown in formula 2, and in the third group, rats were intragastrically administered with a solution of the crystal form B of the adipate of fused ring pyrimidine compound as shown in formula 3.
4) Collection of blood samples: About 150 μL of blood was taken from the fundus venous plexus before administration and 0.083, 0.25, 0.5, 1, 2, 4, 8 and 24 hours after administration from each rat in the three groups, and anticoagulated with K2EDTA, plasma was separated by centrifugation and the supernatant was collected for LC-MS analysis.

[6] abbreviates: listed as The fumarate of fused ring pyrimidine compound as shown in formula 2.
[7] abbreviates: medium intestinal fluid in simulated fed state (FeSSIF).
[8] abbreviates: medium pH 4 (50 mM phosphate buffer).
Setting [9] is: medium pH 6 (50 mM phosphate buffer).
[10] abbreviates: listed as The tartrate of fused ring pyrimidine compound as shown in formula 5.
Setting [11] is: listed as The phosphate of fused ring pyrimidine compound as shown in formula 4.

On to `COc1cc(F)ccc1-c1c(C)sc2cnc(Nc3cnn(C4CCNCC4)c3)nc12` [Example 1], for which, in series [1], the saturated solubility is 0.17 mg/mL and the “solubility in pure water compared with the free base” value is given as “significantly improved”. Besides, in series [2] (setting [6]), the “DVS: Moisture-absorption weight gain at 85% RH” value (“DVS … at 85% RH” below) is reported as 85% RH: 0.324%, the “DVS: Moisture-absorption weight gain at 95% RH” value (“DVS … at 95% RH” for short) was 95% RH: 0.404%, the “XRPD of samples after DVS test” value is listed as “consistent” and the “DVS: Weight loss in drying stage” value was “drying stage: 0.117%”.

As for `COc1cc(F)ccc1-c1c(C)sc2cnc(Nc3cnn(C4CCNCC4)c3)nc12` [The crystal form A of the fumarate of fused ring pyrimidine ], the “solubility in intestinal fluid (FeSSIF) in simulated fed state, in words” value in series [3] (FeSSIF) was “high”. Also, the “pH value of sample solution for solubility” value is given as 7.27 in series [3] (medium Purified water), 5.19 in series [3] (setting [7]), 4.33 in series [3] (setting [8]) and 5.96 in series [3] (setting [9]). The “Solubility (calculated by free base of the fused ring pyrimidine compound)” value in series [3] (medium Purified water) is given as 0.126; in series [3] (setting [8]), 0.159. Further, the “solubility in pure water compared to free base” value in series [3] is listed as “significantly improved”. Also, in series [2], the “DVS weight gain from 0% RH to 95% RH” value stood at 0.2518%. Moreover, the Impurity content in series [4] (Day 0) worked out at 0.25%; in series [4] (Day 20, 25° C/60% RH) it was 0.25%; in series [4] (Day 20, 40° C/75% RH), 0.28%; in series [4] (Day 20, 60° C), 0.25%; in series [4] (Day 20, Light (4500 lx±500 lx)), 0.46%. In addition, the “chemical stability in the condition of high temperature and high humidity” value in series [4] is reported as “good chemical stability”. Also, the “stability under light conditions versus the compound of formula 1” value in series [4] is reported as “significantly higher”. Further, the “Blood drug concentration (AUC)” value in series [5] amounted to 999 ng·h/mL.

With `COc1cc(F)ccc1-c1c(C)sc2cnc(Nc3cnn(C4CCNCC4)c3)nc12` [The crystal form B of the adipate of fused ring pyrimidine c], the “pH value of sample solution for solubility” value was 7.09 in series [3] (medium Purified water), 5.2 in series [3] (setting [7]), 4.85 in series [3] (setting [8]) and 6.01 in series [3] (setting [9]). Also, the “Solubility (calculated by free base of the fused ring pyrimidine compound)” value in series [3] (medium Purified water) is 0.463; in series [3] (setting [7]), 1.46; in series [3] (setting [8]), 0.104; in series [3] (setting [9]), 0.035. Besides, the “solubility in pure water compared to free base” value in series [3] is given as “significantly improved”. For the same compound, in series [2], the “DVS weight gain from 0% RH to 95% RH” value was 2.751%. Also, the Impurity content is reported as 0.24% in series [4] (Day 0); 0.22% in series [4] (Day 20, 25° C/60% RH); 0.22% in series [4] (Day 20, 40° C/75% RH); 0.23% in series [4] (Day 20, 60° C); 0.42% in series [4] (Day 20, Light (4500 lx±500 lx)). In series [4], the “chemical stability in the condition of high temperature and high humidity” value is listed as “good chemical stability”. Further, the “stability under light conditions versus the compound of formula 1” value in series [4] is listed as “significantly higher”. In series [5], the “Blood drug concentration (AUC)” value came to 1038 ng·h/mL.

`COc1cc(F)ccc1-c1c(C)sc2cnc(Nc3cnn(C4CCNCC4)c3)nc12` [Example 2]: in series [1], the saturated solubility is given as 0.52 mg/mL and the “solubility in pure water compared with the free base” value is “significantly improved”.

For `COc1cc(F)ccc1-c1c(C)sc2cnc(Nc3cnn(C4CCNCC4)c3)nc12` [Example 4], in series [1], the saturated solubility is 0.146 mg/mL and the “solubility in pure water compared with the free base” value is recorded as “significantly improved”. In series [2] (setting [10]), the “DVS … at 85% RH” value is reported as 85% RH: 8.390%, the “DVS … at 95% RH” value is 95% RH: 8.659% and the “DVS: Weight loss in drying stage” value is given as “drying stage: 5.88%”.

Regarding `COc1cc(F)ccc1-c1c(C)sc2cnc(Nc3cnn(C4CCNCC4)c3)nc12`, the solubility was 36 µg/mL (≈ 82.1 µM) in series [3] (50 mM phosphate buffer, pH 6, aqueous buffer, medium pH 6 (50 mM phosphate buffer)) and 1910 µg/mL (≈ 4350 µM) in series [3] (FeSSIF, medium intestinal fluid in simulated fed state (FeSSIF)).

Take `COc1cc(F)ccc1-c1c(C)sc2cnc(Nc3cnn(C4CCNCC4)c3)nc12` [Example 3]: in series [1], the saturated solubility is recorded as 0.675 mg/mL and the “solubility in pure water compared with the free base” value was “significantly improved”. Also, in series [2] (setting [11]), the “DVS … at 85% RH” value is listed as 85% RH: 6.95%, the “DVS … at 95% RH” value was 95% RH: 12.15%, the “XRPD of samples after DVS test” value is on record as “consistent” and the “DVS: Weight loss in drying stage” value was “drying stage: 0.752%”.

As a reminder, the solubility is the concentration that dissolves in the medium under given conditions.
